Experimental findings from US20260355171A1, “INHIBITORS AND USES THEREFOR” (priority 2022, published 2026) are described below.

The test system of data set [1] is primary neurons. Kind of data set: Effect of compounds on neuronal cell death caused by NSP5 (Example 6). In kind it is cell-based, mouse. To be noted: 10 μM, 48 hours.
Data set [2] has as its system primary neurons expressing SARS-CoV-2 NSP5 (AAV9-NSP5-V5). The data set can be described thus: Effect on neurons in the presence of NSP5 (AAV9-NSP5-V5, immunofluorescence). It is filed as cell-based, mouse. The settings on record: 0.4, 2, 10 or 50 μM, two days.
Data set [3] has as its system primary neurons. Kind of data set: Cytotoxicity / neuronal cell death in the presence of NSP5 (PI/DAPI).
The subject of data set [4] is primary neurons. Kind of data set: Neuronal cell death in the presence of staurosporine. It is filed as cell-based, mouse. The settings on record: 1 or 10 μM compound, 5 μM staurosporine. The protocol:
(§1) Primary neurons were treated with 0.4, 1, 2, 10 or 50 μM of compound 2 or compound 22 (prepared according to Example 2). NSP5 was added to primary neurons at DIV11, and compound 2 or 22 was added 48 hours later. Cells were treated with propidium iodide 48 hours after compound addition. Cells were washed with PBS and fixed with 4% PFA. Cells were then washed and stained with DAPI. Images of cells were taken with ZEISS Axioscan 7 microscope slide scanner. Cell death was determined by Image J analysis, counting the death cell (red, PI)) vs all cells (blue, DAPI).
(§2) One hour after compound addition (1 or 10 μM of compound 2 or compound 22) neurons were treated with a cytotoxic agent (100 μM N-methyl-D-aspartate (NMDA), 100 μM H2O2 or 5 μM staurosporine). One hour after treatment with the cytotoxic agent, the media was replaced with fresh media and the neurons were incubated for 24 hours. A final concentration of 1 μM propidium iodide (PI) was added into the well and incubated for 5 mins. Cells were washed with phosphate-buffered saline (PBS) and then fixed with 4% PFA. Cells were then washed and stained with DAPI, and cell death determined as described above.

In data set [5] the test system is primary neurons. Kind of data set: Neuronal cell death in the presence of H2O2. It is filed as cell-based, mouse. To be noted: 1 or 10 μM compound, 100 μM H2O2. The method, then: as §1, §2
The test system of data set [6] is primary neurons. The data set can be described thus: Neuronal cell death in the presence of NMDA. In kind it is cell-based, mouse. The settings on record: 1 or 10 μM compound, 100 μM NMDA. The protocol:
as §1, §2

`NC(=O)C1CCN(c2ncccc2CNC(=O)c2cc(F)cc(C(F)(F)F)c2)CC1` [Compound 35]: the “Reduction of neuronal cell death caused by NSP5” value with primary neurons [1] is recorded as “greatest activity”.

For the compound `NC(=O)C1CCN(c2ncccc2CNC(=O)c2cccc3ccsc23)CC1` [Compound 2], the “Prevention of NSP5-induced neuronal death” value in data set [2] is “prevented NSP5-induced neuronal death in a dose-dependent manner”. Also, the “Reduction of neuronal cell death caused by NSP5” value with primary neurons [3] (0.4, 1, 2, 10 or 50 μM, 48 hours) is “selectively reduced neuronal cell death caused by NSP5”. In addition, in the data set on primary neurons [3] (therapeutic concentrations (nM to low μM)), the “Cell death caused by compound” value was “did not cause any cell death”. Besides, in the data set on primary neurons [4], the “Protection from staurosporine-induced neurotoxicity” value is reported as “did not protect”. Further, the “Protection from H2O2-induced neurotoxicity” value with primary neurons [5] is recorded as “did not protect”. In the data set on primary neurons [6], the “Protection from NMDA-induced neurotoxicity” value is “did not protect”.
